The values that follow come from patent US20030039672A1, “Cosmetic composition and method of treating skin” (Unilever Home & Personal Care USA, Division of Conopco, Inc., priority 2001, published 2003).

Common to all, as to format: cell-based
Assay [1] concerns procollagen-I synthesis in human dermal fibroblasts. The assay can be described thus: Dot blot assay for procollagen-I protein in dermal fibroblast conditioned medium. The note with it: for Procollagen Level: 24 hours, relative to vehicle treated control value of 100. On the procedure: (§1) Primary human foreskin fibroblasts at passage 2 (P2) were seeded into 12-well plates at 10000 cells/cm^2 and maintained for 24 hours in an atmosphere of 5% carbon dioxide and 4% oxygen in Dulbeccos Modified Eagles Medium (DMEM) supplemented with 10% foetal calf serum. After this time the cells were washed with serum free DMEM and then incubated in fresh serum free DMEM for a further 60 hours. The fibroblast monolayers were then washed again with serum free DMEM. Test reagents and vehicle controls were added to the cells in triplicate in a final volume of 0.4 ml/well fresh serum free DMEM and incubated for a further 24 hours. This fibroblast conditioned medium was either analysed immediately or snap frozen in liquid nitrogen and stored at −70° C. for future analysis. The cells were then counted and data from the dot-blot analysis subsequently standardised to cell number.
(§2) Samples of conditioned medium from dermal fibroblasts treated with vehicle (as a control) or test reagents were supplemented with 20 mM dithiothreitol (1:10 dilution of 200 mM stock solution) and 0.1% sodium dodecylsulphate (1:100 dilution of 10% stock solution), mixed well and then incubated at 75° C. for 2 minutes. A standard for the assay was generated by serial dilution of neat fibroblast conditioned medium from fibroblasts seeded at 10000 cells/cm^2 in a 175 cm^2 flask and maintained in serum free DMEM as described above. […]
(§3) Following this the Immobilon strips were again washed with TBS/Tween 20 (3×5 minutes) before being allowed to dry in air at room temperature. […] Dot intensity was assessed by computer-assisted image analysis using the quantification tools in ImageQuant™, standardised to cell number and the effects of various test reagents on decorin and procollagen-I synthesis were determined relative to a vehicle treated control value of 100 arbitrary units.
(§4) In order to normalise the results the effects of the test substance was determined relative to a vehicle treated control value of 100 arbitrary units.

Assay [2] concerns decorin synthesis in human dermal fibroblasts. The assay can be described thus: Dot blot assay for decorin protein in dermal fibroblast conditioned medium. To be noted: for Decorin Level: 24 hours, relative to vehicle treated control value of 100. On the procedure: as §1, §2, §3, §4
Assay [3] has as its system Human foreskin keratinocytes. The assay can be described thus: Cornified envelope production in keratinocytes (silver-stained dot blot). The note with it: for Cornified Envelope % Control / Cornified Envelope Mean: 4 days of treatment. On the procedure:
(§5) Human foreskin keratinocytes at passage 3 (P3) were seeded into 96 well plates at 4000 cells/well in Dubleccos Modified Eagles Medium (DMEM), 0.03 mM calcium. The cells were grown for 3 days prior to treatment. The treatment vehicle was DMSO. After 4 days of treatment, the cells were harvested and washed three times with 100 μl phosphate buffered saline (PBS). The cells were then extracted in 1% Triton X100, 50 mM Tris pH 8.0, 0.02 mM Leupeptin, 0.02 mM Pepstatin. 60 il/well of extract was then assayed for DNA concentration (ng/well), Pico Green DNA assay, Molecular Probes.
The cells were then washed in 200 μl PBS, and then 100 μl of 2% SDS, 20 mM DTT was added to each well. The plates were then sealed with a Titertek plate sealer (ICN) and incubated at 60° C. over night in an air tight damp environment (i.e. a sealed sandwich box lined with damp paper). The extract was then filtered through a PVDF transfer membrane (Bio-rad) under gravity using Dot-Blot apparatus (Bio-rad). The membrane is then washed in distilled water prior to silver staining (Bio-rad Silver Stain kit). The stained dot blot membrane is then analysed using Phoretix array software (Phoretix International).

Assay [4] concerns Human foreskin keratinocytes. The assay is described as follows: DNA concentration of keratinocyte extract (Pico Green DNA assay). To be noted: 4 days of treatment. The protocol: as §5
The mark [5] stands for this setting: human dermal fibroblasts, statement in words.

Structures are written as SMILES.

On to `CC/C=C\C/C=C\C/C=C\CCCCCC(=O)O` [Hexadecatrienoic acid, hexadecatrienoic acid (C16:3(c7, c10, c13))], for which the “Procollagen Level” value in assay [1] (1 μM) is 91.0 arbitrary units; in assay [1] (10 μM), 184.2 arbitrary units. In assay [1] (setting [5]), the “synthesis of procollagen-I as compared to the control” value was “significantly upregulates”. Further, the entries for the “Decorin Level” value in assay [2] (1 μM) and in assay [2] (10 μM) were 108.7 arbitrary units and 115.4 arbitrary units, respectively. Moreover, the “synthesis of decorin as compared to the control” value in assay [2] (setting [5]) is given as “significantly upregulates”. The “Cornified Envelope % Control” value worked out at 98 % Control in assay [3] (0.1 μM), 133 % Control in assay [3] (0.5 μM), 200 % Control in assay [3] (1 μM) and 227 % Control in assay [3] (10 μM). Further, the “Cornified Envelope Mean” value in assay [3] (0.1 μM) is on record as 17617; in assay [3] (0.5 μM) it was 24009; in assay [3] (1 μM), 36017; in assay [3] (10 μM) it was 40997. Besides, in assay [3] (1-10 μM application, statement in words), the cornified envelope production entry is listed as “increased”. Moreover, the “DNA Results % Control” value in assay [4] (0.1 μM) was 59 % Control; in assay [4] (0.5 μM) it was 89 % Control; in assay [4] (1 μM), 76 % Control; in assay [4] (10 μM), 68 % Control. Also, the “DNA Results Mean” value was 0.98 ng/well in assay [4] (0.1 μM), 1.48 ng/well in assay [4] (0.5 μM), 1.27 ng/well in assay [4] (1 μM) and 1.13 ng/well in assay [4] (10 μM).
